From patent US20110076331A1, “Use of Deuterium Oxide as an Elastase Inhibitor” (priority 2008, published 2011)

Legend:
brown Norwegian rats = experiment: Animal model of allergic bronchial asthma (ovalbumin); type: in vivo, rat; conditions: aerosol of isotonic D2O solution for 6 days before ovalbumin aerosol; after 24 hours
Protocol: The effect of D2O in allergic asthma was presented in an animal model of 10-week-old brown Norwegian rats (Roumestan et al., Resp Res 8:35-46, 2007). Sensitization of the animals occurred by repeated intraperitoneal injection of ovalbumin. The animals were then introduced to a climatized cage and constantly treated with an aerosol of isotonic H2O or D2O solution for 6 days. Asthma triggering by an ovalbumin-containing aerosol then occurred. The change in airway resistance was then determined as parameter by barometric plethysmography on the living animals after 24 hours. A significant intensification of airway resistance was found in the H2O-treated group.

Wistar rats = experiment: Animal model of allergic conjunctivitis (chicken protein); type: in vivo, rat; conditions: D2O-based isotonic saline trickled together with chicken protein
Protocol: A corresponding animal model was used to test the efficacy of eye drops prepared with D2O (Minami et al., Biol. Pharm. Bull 28:473-476, 2005). In 6-week-old Wistar rats an allergy to chicken protein was produced by injection of chicken protein together with alum and 10^10 B. pertussis into the soles of the feet and then a booster with chicken protein in the back area. Before the experiment the animals were kept in a climatized cage and after 10 minutes of adaptation 5 μL chicken protein solution was trickled into each eye. The animals were then transferred to an observation cage and the scratching movements in the direction of the eyes counted over a period of 20 minutes. Hyperemia and conjunctival edema were then determined.
To investigate an effect of D2O on the symptoms caused by chicken protein either H2O- or D2O-based isotonic saline was trickled together with the chicken protein in a double-blind design.

Long-Evans rats = experiment: Cerebral ischemia/reperfusion animal model; type: in vivo, rat; conditions: D2O in isotonic saline infused 15 minutes before ischemia and right before reperfusion; vs H2O
Protocol: The effect of D2O on cerebral ischemia was investigated in an animal model. For this purpose cerebral ischemia was produced for 1 hour in adult Long-Evans rats by closure of both carotid arteries, which followed reperfusion over 24 hours. Final observation with evaluation of neurovegetative symptoms occurred (spontaneous activity, coordinated walking, stretching of the front paw and climbing). Damage to the brain tissue was then investigated histologically. In two experimental groups of three rats each, either D2O (experimental group) or H2O (control group) in isotonic saline was infused in the animals 15 minutes before initiation of ischemia and right before subsequent reperfusion.

Syrian Gold hamsters = experiment: D2O aerosols in an animal model of COPD (HNE-induced hemorrhage); type: in vivo, hamster
Protocol: The employed H2O was distilled and ion-exchanged. Both D2O and H2O were sterile. A Pari LC Plus universal atomizer (PARI GmbH, Starnberg, Germany) was used for aerosolization combined with a Pari universal compressor, which generated 200 mg/min polydispersed aerosol with an average particle size (median diameter) of 2.5 μm for pure H2O and pure D2O and 2.5-4.5 μm for H2O and D2O with additional non-pharmaceutical and/or pharmaceutical agents (operating pressure 2.0 bar, flow rate of the compressor air was 6.0 L/min). The particle size measurement occurred with dynamic light scattering in a flow cell. Aerosol generation occurred at a temperature of 37° C. by corresponding thermostating of the atomizer in a water bath thermostat.
Male Syrian Gold hamsters (average weight 105 g±8 g) were divided into two groups (experimental group and control group) of six hamsters each. The animals of both groups were anesthetized intraperitoneally (ketamine 95 mg/kg and xylazine 17 mg/kg) and then intubated endotracheally by direct laryngoscopy. Both groups received 100 μL of human neutrophil elastase (500 μg/mL in sterile 0.9% NaCl solution) instilled. […] For BAL 2.5 mL 0.9% NaCl solution was repeatedly instilled (total of three times) and the hemoglobin concentration then determined in the instillate speetrophotometrically. […] For the experimental group an average hemoglobin value of 120±20 mOD was measured. […]

[1] = target: T1, human neutrophil elastase (HNE) (Homo sapiens, UniProt P08246); experiment: Inhibition of AAPV conversion by human neutrophil elastase (photometric, 405 nm); type: biochemical
T1 sequence (P08246 30-267): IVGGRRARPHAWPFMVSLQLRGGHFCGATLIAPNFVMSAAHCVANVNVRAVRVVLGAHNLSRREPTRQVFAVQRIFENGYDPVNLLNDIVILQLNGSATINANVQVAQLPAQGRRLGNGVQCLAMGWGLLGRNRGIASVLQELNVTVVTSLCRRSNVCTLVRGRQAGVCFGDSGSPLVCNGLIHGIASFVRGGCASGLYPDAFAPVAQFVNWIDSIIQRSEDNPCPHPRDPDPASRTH
Protocol: Measurement of AAPV conversation occurred spectrophotometrically at a wavelength of 405 nm.
HNE was incubated together with the synthetic substrate N-methoxysuccinyl-Ala-Ala-Pro-Val-p-nitroanilide (AAPV). Conversion of AAPV was then determined photometrically at 405 nm. The following incubation scheme was used: • Sample 1) HNE IN D2O with AAPV in D2O; • Sample 2) HNE in D2O with AAPV in H2O; • Sample 3) HNE in H2O with AAPV in D2O; • Control: HNE in H2O with AAPV in H2O.
The enzyme and substrate were each incubated for 60 minutes with H2O or D2O before HNE and AAPV were added together. The amount of D2O in the experiments was varied over a range from 10 to 100% in order to detect the dependence of inhibition of AAPV conversion by HNE.
A half-maximum effective dose was determined at a D2O content of about 40 vol %. At 100% D2O in the mixture an inhibition of AAPV conversion of about 70% was achieved.

[2] = system: subjects with acute sinusitis; experiment: Aerosol inhalation in acute sinusitis (rhinoendoscopy); type: in vivo, human; conditions: D2O aerosol with 150 mM NaCl inhaled for 15 minutes
Protocol: Aerosols from D2O and H2O each mixed with 150 mM NaCl were prepared according to example 2. Subjects with acute sinusitis in the maxillary sinus area were divided into two groups. The experimental group inhaled the D2O aerosol for 15 minutes, the control group the H2O aerosol. During inhalation the subjects were relied on to inhale through the nose as much as possible. Every 3 hours after inhalation a rhinoendoscopic examination of the sinuses was conducted.

Compound: [2H]O[2H] [D2O, deuterium oxide]
- change in airway resistance (barometric plethysmography) (brown Norwegian rats): only a slight increase in airway resistance
- number of scratching movements in the eye direction (Wistar rats; after 20 minutes, vs H2O): significant reduction in the number of scratching movements
- hyperemia and edema (Wistar rats; vs H2O group): reduced
- reperfusion damage (granulocytes in histological sections, neurological behavior) (Long-Evans rats): significant effect on the reduction in reperfusion damage
- inhibition of acute lung damage caused by elastase (hemorrhage) (Syrian Gold hamsters; D2O aerosol 24 hours, from reduction in hemoglobin concentration vs H2O aerosol control group): 60%
- average hemoglobin value in BAL (Syrian Gold hamsters; continuous D2O aerosol in respiration air for 24 hours after HNE instillation): 120±20 mOD
- half-maximum effective dose (D2O content) for inhibition of AAPV conversion ([1]; D2O amount in the mixture of HNE and AAPV, 60 minutes preincubation): about 40 vol %
- inhibition of AAPV conversion ([1]; at 100% D2O in the mixture): about 70%
- mucosal swelling ([2]; vs H2O aerosol control group): significant reduction of mucosal swelling
- outflow of secretion ([2]; vs control group): improved outflow of secretion
